Laboratory results as given in patent publication US20080146509A1, “COMPOSITIONS FOR DELIVERING PARATHYROID HORMONE AND CALCITONIN” (EMISPHERE TECHNOLOGIES, INC., priority 2002, published 2008).

Test: Mean peak blood calcitonin concentration (Cmax) of sCT after oral capsule dosing of monkeys
Type: in vivo, cynomolgous monkeys
Description: 5-CNAC disodium salt ethanol solvate was screened through a 35 mesh Tyler standard sieve. 13.54 g of this material was weighed out and kept in a weighing boat. 0.028 g of parathyroid hormone (PTH) and 0.025 g of salmon calcitonin (sCT) were separately weighed out and kept in separate weighing boats. An amount of the previously weighed 5-CNAC disodium salt ethanol solvate approximately equivalent in volume to the total volume of PTH (i.e. a geometric amount) was prescreened through the same 35 mesh Tyler standard sieve on to clean paper. All the PTH was then screened through the same sieve onto the same paper. An amount of the screened 5-CNAC disodium salt ethanol solvate equivalent in volume to the total amount of material on the paper was screened through the same sieve. This was followed by screening the sCT through the same sieve on to the paper. A geometric amount of the 5-CNAC disodium salt ethanol solvate was then screened through the same sieve onto the paper. The materials on the paper were then transferred to a glass mortar and mixed by light trituration with a pestle. The remainder of the 5-CNAC disodium salt ethanol solvate was screened through the same 35 mesh Tyler standard sieve. […]
Four cynomolgous monkeys were dosed via a feeding tube two capsules each followed by 10 ml water. The mean peak blood calcitonin concentration, Cmax, of sCT was then measured.

mean peak blood concentration of sCT relative to that found when dosing capsules of 5-CNAC and sCT in rhesus monkeys (capsules of 5-CNAC disodium salt ethanol solvate, PTH and sCT in cynomolgous monkeys vs capsules of 5-CNAC and sCT in rhesus monkeys): about four
Cmax (monkey, blood, oral, cynomolgous monkeys, via feeding tube two capsules each (per capsule approx. 226.28 mg 5-CNAC disodium salt ethanol solvate, 0.461 mg PTH, 0.411 mg sCT) followed by 10 ml water): 2 to 2.5 ng/mL
SMILES: CC(C)C[C@H](NC(=O)[C@H](CCCCN)NC(=O)CNC(=O)[C@H](CC(C)C)NC(=O)[C@@H](NC(=O)[C@@H]1CSSC[C@H](N)C(=O)N[C@@H](CO)C(=O)N[C@@H](CC(N)=O)C(=O)N[C@@H](CC(C)C)C(=O)N[C@@H](CO)C(=O)N[C@@H]([C@@H](C)O)C(=O)N1)C(C)C)C(=O)N[C@@H](CO)C(=O)N[C@@H](CCC(N)=O)C(=O)N[C@@H](CCC(=O)O)C(=O)N[C@@H](CC(C)C)C(=O)N[C@@H](Cc1c[nH]cn1)C(=O)N[C@@H](CCCCN)C(=O)N[C@@H](CC(C)C)C(=O)N[C@@H](CCC(N)=O)C(=O)N[C@H](C(=O)N[C@@H](Cc1ccc(O)cc1)C(=O)N1CCC[C@H]1C(=O)N[C@@H](CCCNC(=N)N)C(=O)N[C@H](C(=O)N[C@@H](CC(N)=O)C(=O)N[C@H](C(=O)NCC(=O)N[C@@H](CO)C(=O)NCC(=O)N[C@H](C(=O)N1CCC[C@H]1C(N)=O)[C@@H](C)O)[C@@H](C)O)[C@@H](C)O)[C@@H](C)O [sCT, salmon calcitonin]
